# Experimental data: patent US10392368B2, “Pyrazolo and triazolo bicyclic compounds as JAK kinase inhibitors” (THERAVANCE BIOPHARMA R&D IP, LLC, priority 2017, dated 2019)
# Key:
# [1] = target: T1, JAK1 (Homo sapiens, UniProt P23458); experiment: Biochemical JAK1 kinase assay (LanthaScreen); conditions: read-out: JAK 1 (pKi) (converted)
# T1 construct: GST; purchased Life Technologies
# Outline: (§1)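 GST-tagged JAK enzyme and GFP-STAT1 peptide preincubated with compound 1 h, then ATP added; 1 h kinase reaction at ambient temperature, pH 7.5 HEPES/MgCl2 buffer, 1% DMSO. Tb-anti-pSTAT1 (pTyr701) TR-FRET, 520/495 nm ratio; IC50 from 4-parameter fit, converted to pKi via Cheng-Prusoff.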
# [2] = tested on: IL-2 stimulated pSTAT5 in Tall-1 T cells; experiment: Cellular JAK3 potency assay: inhibition of IL-2 stimulated pSTAT5 in Tall-1 T cells; format: cell-based, human; conditions: Homo sapiens, TALL-1, IL-2 stimulated pSTAT5 in Tall-1 T cells; read-out: Tall-1 (pIC50) (converted)
# Outline: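 In human Tall-1 T cells, IL-2 (300 ng/ml final, 30 min) drives STAT5 phosphorylation after a 1 h compound pretreatment. Lysates are assayed for pSTAT5 by AlphaLisa, and IC50 derived from signal versus concentration is expressed as pIC50.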
# [3] = target: T2, JAK2 (Homo sapiens, UniProt O60674); experiment: Biochemical JAK2 kinase assay (LanthaScreen); conditions: read-out: JAK 2 (pKi) (converted)
# T2 construct: GST; purchased Life Technologies
# T2 sequence (O60674 whole entry): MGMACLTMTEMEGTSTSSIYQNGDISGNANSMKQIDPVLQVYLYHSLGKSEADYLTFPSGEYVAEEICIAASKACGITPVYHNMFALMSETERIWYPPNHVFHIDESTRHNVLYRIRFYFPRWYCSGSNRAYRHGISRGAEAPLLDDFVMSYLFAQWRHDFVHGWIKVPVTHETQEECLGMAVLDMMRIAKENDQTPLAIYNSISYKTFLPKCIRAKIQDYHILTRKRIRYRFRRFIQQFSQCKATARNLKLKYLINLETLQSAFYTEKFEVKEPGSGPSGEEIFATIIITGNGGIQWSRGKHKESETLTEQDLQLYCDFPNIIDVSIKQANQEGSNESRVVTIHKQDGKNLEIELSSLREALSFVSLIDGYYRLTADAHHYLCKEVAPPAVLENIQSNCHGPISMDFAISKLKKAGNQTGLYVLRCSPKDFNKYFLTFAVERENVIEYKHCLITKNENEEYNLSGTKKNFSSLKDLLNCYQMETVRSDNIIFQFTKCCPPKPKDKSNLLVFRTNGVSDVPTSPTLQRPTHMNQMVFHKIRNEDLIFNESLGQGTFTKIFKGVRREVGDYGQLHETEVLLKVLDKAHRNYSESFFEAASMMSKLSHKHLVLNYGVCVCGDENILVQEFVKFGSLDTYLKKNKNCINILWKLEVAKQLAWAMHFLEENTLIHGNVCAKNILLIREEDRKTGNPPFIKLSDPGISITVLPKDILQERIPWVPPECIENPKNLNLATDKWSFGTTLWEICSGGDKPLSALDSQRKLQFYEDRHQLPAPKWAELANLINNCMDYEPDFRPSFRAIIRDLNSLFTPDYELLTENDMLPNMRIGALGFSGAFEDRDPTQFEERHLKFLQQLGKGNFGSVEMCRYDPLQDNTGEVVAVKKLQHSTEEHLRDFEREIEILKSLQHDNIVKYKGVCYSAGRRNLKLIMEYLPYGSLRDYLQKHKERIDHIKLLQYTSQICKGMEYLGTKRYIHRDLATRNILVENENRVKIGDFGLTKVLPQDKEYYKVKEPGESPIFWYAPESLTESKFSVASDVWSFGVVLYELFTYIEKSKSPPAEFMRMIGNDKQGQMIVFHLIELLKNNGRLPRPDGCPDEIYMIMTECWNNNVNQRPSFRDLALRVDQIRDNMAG
# Outline: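 GST-tagged recombinant JAK2 pre-incubated 1 h at ambient temperature with compound and GFP-STAT1 peptide in HEPES pH 7.5/MgCl2 buffer, then ATP added for a 1 h reaction with 1% DMSO. TR-FRET read after EDTA and Tb-anti-pSTAT1 (pTyr701) addition; IC50 from 4-parameter fit, converted to pKi by Cheng-Prusoff.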
# [4] = target: T3, JAK3 (Homo sapiens, UniProt P52333); experiment: Biochemical JAK3 kinase assay (LanthaScreen); set-up: GST; purchased Life Technologies; conditions: for Ki: read-out: JAK 3 (pKi) (converted); for JAK3 (pKi)-JAK1 (pKi): selectivity: difference of pKi JAK3 and pKi JAK1
# T3 sequence (P52333 1-1124): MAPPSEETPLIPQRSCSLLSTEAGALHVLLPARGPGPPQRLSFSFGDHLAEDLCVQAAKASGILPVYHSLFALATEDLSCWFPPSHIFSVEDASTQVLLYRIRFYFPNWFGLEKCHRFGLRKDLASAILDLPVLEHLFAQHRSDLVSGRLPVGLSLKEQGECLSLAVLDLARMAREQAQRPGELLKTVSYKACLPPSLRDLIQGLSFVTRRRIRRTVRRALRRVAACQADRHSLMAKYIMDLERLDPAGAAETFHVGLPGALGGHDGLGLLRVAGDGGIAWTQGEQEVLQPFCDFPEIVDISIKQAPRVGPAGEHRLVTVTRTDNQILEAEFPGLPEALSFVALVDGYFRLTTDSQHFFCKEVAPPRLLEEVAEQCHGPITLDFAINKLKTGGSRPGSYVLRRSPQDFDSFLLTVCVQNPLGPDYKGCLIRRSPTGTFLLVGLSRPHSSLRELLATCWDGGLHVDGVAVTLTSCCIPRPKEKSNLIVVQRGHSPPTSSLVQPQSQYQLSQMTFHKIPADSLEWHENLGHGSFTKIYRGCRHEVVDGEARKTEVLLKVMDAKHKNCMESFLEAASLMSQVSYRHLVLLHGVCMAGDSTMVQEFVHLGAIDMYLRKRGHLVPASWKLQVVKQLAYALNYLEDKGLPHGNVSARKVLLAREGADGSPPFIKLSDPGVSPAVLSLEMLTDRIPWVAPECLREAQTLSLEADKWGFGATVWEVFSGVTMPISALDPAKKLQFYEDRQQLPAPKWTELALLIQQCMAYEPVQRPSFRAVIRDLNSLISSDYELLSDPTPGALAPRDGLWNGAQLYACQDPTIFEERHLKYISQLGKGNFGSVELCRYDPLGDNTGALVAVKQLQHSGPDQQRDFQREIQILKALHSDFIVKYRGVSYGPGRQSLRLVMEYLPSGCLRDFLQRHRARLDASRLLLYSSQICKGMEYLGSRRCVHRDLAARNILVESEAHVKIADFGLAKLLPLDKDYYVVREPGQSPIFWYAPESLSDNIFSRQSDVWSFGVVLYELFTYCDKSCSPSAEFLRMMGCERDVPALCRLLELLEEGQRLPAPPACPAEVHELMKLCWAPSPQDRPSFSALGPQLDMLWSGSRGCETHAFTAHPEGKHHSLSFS
# Outline: as §1
# [5] = target: T4, Tyk2 (Homo sapiens, UniProt P29597); experiment: Biochemical Tyk2 kinase assay (LanthaScreen); conditions: read-out: Tyk 2 (pKi) (converted)
# T4 construct: GST; purchased Life Technologies
# T4 sequence (P29597 whole entry): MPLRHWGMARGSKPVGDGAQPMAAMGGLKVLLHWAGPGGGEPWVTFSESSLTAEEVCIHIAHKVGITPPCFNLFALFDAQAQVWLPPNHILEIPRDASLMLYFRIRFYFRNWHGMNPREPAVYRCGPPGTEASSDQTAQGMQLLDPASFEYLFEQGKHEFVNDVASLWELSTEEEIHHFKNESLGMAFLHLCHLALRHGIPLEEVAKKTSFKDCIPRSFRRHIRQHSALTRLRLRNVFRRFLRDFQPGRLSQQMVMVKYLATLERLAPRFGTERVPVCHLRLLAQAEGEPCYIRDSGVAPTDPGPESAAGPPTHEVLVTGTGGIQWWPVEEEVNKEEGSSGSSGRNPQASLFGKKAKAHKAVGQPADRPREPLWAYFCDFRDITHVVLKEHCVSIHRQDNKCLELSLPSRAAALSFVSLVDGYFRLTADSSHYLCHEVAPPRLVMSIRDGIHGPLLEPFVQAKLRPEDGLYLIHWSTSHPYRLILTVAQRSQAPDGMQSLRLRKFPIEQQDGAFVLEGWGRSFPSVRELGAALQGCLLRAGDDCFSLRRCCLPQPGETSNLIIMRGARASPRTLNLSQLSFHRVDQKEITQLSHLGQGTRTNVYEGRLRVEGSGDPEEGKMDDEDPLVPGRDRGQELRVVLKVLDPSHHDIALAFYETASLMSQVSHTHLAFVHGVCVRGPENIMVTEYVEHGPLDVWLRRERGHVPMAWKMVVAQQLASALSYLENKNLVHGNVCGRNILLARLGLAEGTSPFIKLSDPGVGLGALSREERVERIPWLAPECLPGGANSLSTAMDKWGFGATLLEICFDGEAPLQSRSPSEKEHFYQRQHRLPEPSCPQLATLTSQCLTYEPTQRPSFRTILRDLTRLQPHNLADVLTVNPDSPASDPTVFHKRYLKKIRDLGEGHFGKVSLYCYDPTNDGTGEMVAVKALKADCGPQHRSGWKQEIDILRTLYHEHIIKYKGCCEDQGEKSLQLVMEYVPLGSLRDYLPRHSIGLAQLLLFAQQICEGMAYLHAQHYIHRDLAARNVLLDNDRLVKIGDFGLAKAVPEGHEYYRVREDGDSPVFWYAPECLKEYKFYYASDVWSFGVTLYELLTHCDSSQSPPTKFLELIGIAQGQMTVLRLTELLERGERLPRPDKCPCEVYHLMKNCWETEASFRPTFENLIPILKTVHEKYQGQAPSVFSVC
# Outline: as §1
# T1 sequence (P23458 whole entry): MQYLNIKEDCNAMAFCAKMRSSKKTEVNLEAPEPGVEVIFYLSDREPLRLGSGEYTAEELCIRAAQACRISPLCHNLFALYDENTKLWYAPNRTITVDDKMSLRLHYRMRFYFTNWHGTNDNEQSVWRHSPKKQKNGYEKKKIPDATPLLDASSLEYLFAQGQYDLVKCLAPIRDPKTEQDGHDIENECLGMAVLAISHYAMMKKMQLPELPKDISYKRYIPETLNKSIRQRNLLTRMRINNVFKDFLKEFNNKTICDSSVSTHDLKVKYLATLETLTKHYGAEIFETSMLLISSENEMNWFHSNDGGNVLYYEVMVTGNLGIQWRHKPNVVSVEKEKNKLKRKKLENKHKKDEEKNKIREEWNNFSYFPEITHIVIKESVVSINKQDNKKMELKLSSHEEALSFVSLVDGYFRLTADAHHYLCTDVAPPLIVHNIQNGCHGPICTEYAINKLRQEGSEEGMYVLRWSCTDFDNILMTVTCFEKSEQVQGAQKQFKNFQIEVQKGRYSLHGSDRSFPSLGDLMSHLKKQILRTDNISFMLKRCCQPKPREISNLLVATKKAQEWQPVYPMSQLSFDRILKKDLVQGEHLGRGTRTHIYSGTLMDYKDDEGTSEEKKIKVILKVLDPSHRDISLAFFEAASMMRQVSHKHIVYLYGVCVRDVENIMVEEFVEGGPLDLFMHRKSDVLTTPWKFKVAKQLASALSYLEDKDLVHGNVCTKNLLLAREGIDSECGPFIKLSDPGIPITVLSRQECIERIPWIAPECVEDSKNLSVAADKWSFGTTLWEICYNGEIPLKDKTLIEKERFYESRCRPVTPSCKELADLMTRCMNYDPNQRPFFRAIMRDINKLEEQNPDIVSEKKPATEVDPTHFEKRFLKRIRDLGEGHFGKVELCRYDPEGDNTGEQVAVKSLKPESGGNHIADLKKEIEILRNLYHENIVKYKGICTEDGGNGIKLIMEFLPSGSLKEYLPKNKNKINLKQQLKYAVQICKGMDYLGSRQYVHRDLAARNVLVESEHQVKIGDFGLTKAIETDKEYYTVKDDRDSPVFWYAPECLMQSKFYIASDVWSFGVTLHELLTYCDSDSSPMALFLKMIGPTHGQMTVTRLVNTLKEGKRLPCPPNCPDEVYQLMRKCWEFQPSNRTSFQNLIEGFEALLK
Structure (SMILES),Ki [1],IC50 [2],Ki [3],Ki [4],JAK3 (pKi)-JAK1 (pKi) [4],Ki [5]
CN(C/C=C/C(=O)N1CC(COc2cc(-c3ccc(O)cc3)cc3[nH]ncc23)C1)C1CCC1 [Compound 3-117],> 0.1 µM,0.0316 to 0.2 µM,0.01 to 0.1 µM,0.0001 to 0.001 µM,B (a value of 2.3 to 3),> 0.1 µM
CC(C)CN(C)C/C=C/C(=O)N1CC(COc2cc(-c3ccc(O)cc3)cc3[nH]ncc23)C1 [Compound 3-118],> 0.1 µM,< 0.0316 µM,> 0.1 µM,0.0001 to 0.001 µM,A (a value of 3 or above),> 0.1 µM
COCCN(C)C/C=C/C(=O)N1CC(COc2cc(-c3ccc(O)cc3)cc3[nH]ncc23)C1 [Compound 3-119],> 0.1 µM,0.0316 to 0.2 µM,0.01 to 0.1 µM,< 0.0001 µM,B (a value of 2.3 to 3),> 0.1 µM
COCCN(C/C=C/C(=O)N1CC(COc2cc(-c3ccc(O)cc3)cc3[nH]ncc23)C1)CCOC [Compound 3-120],> 0.1 µM,0.0316 to 0.2 µM,0.01 to 0.1 µM,< 0.0001 µM,A (a value of 3 or above),> 0.1 µM
COC(CN(C)C/C=C/C(=O)N1CC(COc2cc(-c3ccc(O)cc3)cc3[nH]ncc23)C1)OC [Compound 3-121],> 0.1 µM,0.0316 to 0.2 µM,0.01 to 0.1 µM,0.0001 to 0.001 µM,A (a value of 3 or above),> 0.1 µM
CN(C)C/C=C\C(=O)N1CC(COc2cc(-c3ccc(O)c(Cl)c3)cc3[nH]ncc23)C1 [Compound 3-122],> 0.1 µM,< 0.0316 µM,0.01 to 0.1 µM,< 0.0001 µM,A (a value of 3 or above),> 0.1 µM
CSC1CCN(C/C=C/C(=O)N2CC(COc3cc(-c4ccc(O)cc4)cc4[nH]ncc34)C2)C1 (stereo not drawn) [Compound 3-125],> 0.1 µM,0.0316 to 0.2 µM,> 0.1 µM,0.0001 to 0.001 µM,A (a value of 3 or above),> 0.1 µM
CCSCCNC/C=C/C(=O)N1CC(COc2cc(-c3ccc(O)cc3)cc3[nH]ncc23)C1 [Compound 3-126],> 0.1 µM,0.2 to 1 µM,0.01 to 0.1 µM,< 0.0001 µM,A (a value of 3 or above),> 0.1 µM
COC1CCN(C/C=C/C(=O)N2CC(COc3cc(-c4ccc(O)cc4)cc4[nH]ncc34)C2)CC1 [Compound 3-127],> 0.1 µM,0.0316 to 0.2 µM,0.01 to 0.1 µM,< 0.0001 µM,A (a value of 3 or above),> 0.1 µM
